The assay deals with DNA. Description: Induction of DNA (unknown origin) minor groove alkylation. It is filed as nucleic-acid assay, Homo sapiens.

By IC50 is commonly meant the point on the concentration scale where inhibition reaches its midpoint. The low end stands for greater potency, the high end for weaker potency. Consider `CC(C)(C)OC(=O)Nc1ccc(C(=O)Nc2ccc3cc(C(=O)N4C[C@@H](CCl)c5c4cc(O)c4ccccc54)[nH]c3c2)cc1`, for which the IC50 turned out to be 40 pM.
